≈ marks a conversion by molar mass, not a printed value. Where a name gives a salt, the structure may show the parent alone.
Experiments:
[1] = tested on: polyclonal antibodies (antiserum raised to Immunogen II), detecting agent Hapten 1-HRP; assay: Biochip competitive immunoassay (antibody characterisation, cross-reactivity); assay type: binding, sheep; settings: for % Cross-reactivity: CR based on 100% for 1-benzylpiperazine, detecting agent derived from Hapten-1, % CR = IC50 1-benzylpiperazine/IC50 CR x 100; for IC50: detecting agent derived from Hapten-1, competitive assay format
Method: Pre-immunisation blood samples were collected from 16-month-old female Suffolk sheep. The immunisation mixture was prepared by adding 2 mg of immunogen prepared in PBS at a ratio of 50% lmmunogen/PBS with 50% Freund's Complete adjuvant (Sigma, Product Number—F5881) and emulsifying the mixture to prepare the final product for immunisation. On Day 0, each sheep was immunized intramuscularly with 1 ml of the mixture described above, with 2-[4-(piperazin-1-yl-methyl)phenoxy]acetic acid conjugated to a carrier protein bovine thyroglobulin (BTG) (as in example 6 above). Subsequent boosts (a total of 20 boosts) were administered intramuscularly to each sheep every 30 days. Freund's complete adjuvant (Sigma, Product Number—F5881) was used for primary immunizations and Freund's incomplete adjuvant (Sigma product Number—F5506) was used for all subsequent injections. Routine bleeds were taken between boosts to monitor the antibody titre and sensitivity, using hapten 1 conjugated to Horseradish peroxidase in a competitive ELISA, testing cross reactivity to 1-Benzylpiperazine and 4-OH benzylpiperazine.
Once the antibody titres were assessed as meeting the required performance criteria i.e. there was no significant increase in antibody titre and a plateau had been reached in the % displacement profile, antibodies were then evaluated by competitive immunoassay. They were first immobilized on a biochip platform (9 mm×9 mm) (Randox Laboratories Ltd.), which was the vessel for the immunoreactions. The semi-automated bench top analyser Evidence Investigator was used (EV3602, Randox Laboratories Ltd., Crumlin, UK, patents-EP98307706, EP98307732, EP0902394, EP1227311, EP1434995 and EP1354623). The assay principle was based on competition for binding sites of the polyclonal antibodies between free antigen (1-Benzylpiperazine and other cross-reactants) and labelled conjugate (Hapten 1-HRP, prepared as in example 6). Assay dilutent (155 μl), calibrator/1-benzylpiperazine or potential cross-reactant (25 μl) followed by Hapten 1-HRP conjugate (120 μl) were added to the appropriate biochip. The biochips were then incubated for 30 minutes at 30° C. on a thermo-shaker set at 370 rpm. The biochips were then subjected to 2 quick wash cycles using the wash buffer provided, followed by 4×2 minute wash cycles. 250 μl of signal (1:1 luminol+peroxide, v/v) was then added to each biochip, and after 2 minutes the biochip carrier was imaged in the Evidence Investigator analyser. The system incorporates dedicated software to automatically process, report and archive the data generated (details can be found in FitzGerald, S. P. et al, Clin. Chem. 51(7); 1165-1176; 2005).
Calibration curves were generated using the Biochip based immunoassay as described above. The IC50 was calculated from the graphs by taking 50% of the signal from the zero calibrator and reading the corresponding value on the x-axis, equivalent to the concentration of unlabelled ligand which reduces specific binding of labelled ligand by 50%. Specificity was also tested against a range of related analytes (Table 1). Cross-reactivity was calculated according to the following formula: % CR=IC50, 1-benzylpiperazine/IC50, CR×100 where % CR is the percentage cross-reactivity, IC50, 1-benzylpiperazine is the concentration of 1-benzylpiperazine that causes 50% displacement of signal and IC50, CR is the concentration of 1-benzylpiperazine/metabolites/structurally-related molecules that causes 50% displacement of signal.

[2] = tested on: MDMA immunoassay; settings: commercial MDMA immunoassay; cited from earlier work
[3] = cited from earlier work
[4] = Wistar rats, cited from earlier work; for % of the dose excreted as this molecule: BZP dosed; for detectability in urine post-dosing / time of peak urinary level post-dosing: urine

Structure (SMILES) | % Cross-reactivity [1] | IC50 [1] | further results
COc1ccccc1N1CCNCC1 [1-(2-Methoxyphenyl)piperazine diHCl, 1-(2-Methoxyphenyl)piperazine] | 3.2% | 0.0438 mg/L | –
Oc1cccc(N2CCNCC2)c1 [1-(3-Hydroxyphenyl)piperazine] | 1.0% | 0.14 mg/L (≈ 0.785 µM) | –
Cc1cccc(N2CCNCC2)c1 [1-(3-Methylphenyl)piperazine] | 3.9% | 0.0359 mg/L (≈ 0.204 µM) | –
FC(F)(F)c1cccc(N2CCNCC2)c1 [1-(3-Trifluoromethylphenyl)piperazine] | 1.9% | 0.0737 mg/L (≈ 0.32 µM) | –
Cc1ccc(N2CCNCC2)cc1 [1-(4-Methylphenyl)piperazine] | 1.3% | 0.1077 mg/L (≈ 0.611 µM) | –
c1ccc(CN2CCNCC2)cc1 [1-Benzylpiperazine, 1-benzylpiperazine] | 100.0% | 0.0014 mg/L (≈ 0.00794 µM) | concentration needed for a positive result [2]: 3,000,000 ng/mL; elimination half life ([3]; in vivo): 5 to 6 h; time at which elimination is complete ([3]; in vivo): around 44 hrs; time to detection in plasma ([3]; oral dose of BZP hydrochloride): ≤ 30 min; % of the dose excreted as this molecule [4]: 6.7%; detectability in urine post-dosing [4]: undetectable at 48hrs; time of peak urinary level post-dosing [4]: around 4 hrs
c1ccc(N2CCNCC2)cc1 [1-Phenylpiperazine] | 3.4% | 0.0412 mg/L (≈ 0.254 µM) | –
c1cc2c(cc1CN1CCNCC1)OCO2 [1-Piperonylpiperazine] | 101.5% | 0.0014 mg/L (≈ 0.00636 µM) | –
Oc1cccc(CN2CCNCC2)c1 [3-(Piperazin-1ylmethyl)phenol diHCl, 3-(Piperazin-1ylmethyl)phenol] | 123.7% | 0.0011 mg/L | % of the dose excreted as this molecule [4]: 2%; detectability in urine post-dosing [4]: detectable up to 48hrs; time of peak urinary level post-dosing [4]: around 8 hrs
Oc1ccc(CN2CCNCC2)cc1 [4-OH Benzylpiperazine, 4-OH benzylpiperazine] | 172.1% | 0.0008 mg/L (≈ 0.00416 µM) | % of the dose excreted as this molecule [4]: 25%; detectability in urine post-dosing [4]: detectable up to 48hrs; time of peak urinary level post-dosing [4]: around 8 hrs
Cc1cccc(CN2CCNCC2)c1 [N-(3-Methylbenzyl)piperazine diHCl, N-(3-Methylbenzyl)piperazine] | 52.9% | 0.0026 mg/L | –
Clc1cccc(N2CCNCC2)c1 [mCPP HCl, 1-(3-chlorophenyl)piperazine] | 0.6% | 0.2333 mg/L | –
